We go through 23 compounds from patent US10711004B2 (Genentech, Inc., priority 2018, dated 2020).

One may read the IC50 as the midpoint of a concentration-inhibition curve.

For the test, the target named is human TRPA1 channel (Homo sapiens (Human), UniProt O75762). Briefly: hTRPA1 CHO Ca2+ FLIPR Tetra assay, block of cinnamaldehyde induced calcium influx. The settings on record: CHO cells expressing TRPA1, Hill coefficient fixed to 1.5. Type of test: cell-based. As for the experimental part:
CHO cells expressing TRPA1 were plated into 384-well plates, incubated overnight at 37° C., and loaded with BD calcium indicator dye for 1 hr at 37° C. followed by 15 minutes at room temperature. The assay buffer was Hank's Balanced Salt Solution (HBSS) containing 20 mM HEPES (pH readjusted to 7.4) along with 0.02% BSA.
Following dye load and plate cool down, compounds were added to the cells using FLIPR Tetra. Plates were then incubated with compounds for 10 minutes or 90 minutes at room temperature prior to adding agonist. Following this incubation, about an EC50 concentration of cinnamaldehyde (75) was added to active the channels and block of cinnamaldehyde induced calcium influx was measured.
Fixing the Hill coefficient will generally reduce variability of the IC50 determination. The IC50 results were individually examined to make sure the MIN and MAX points were set correctly prior to validation of the results.

Where [1] appears, read: read-out: hTRPA1 IC50 (10 min), compounds incubated 10 minutes at room temperature before cinnamaldehyde agonist.
Where [2] appears, read: read-out: hTRPA1 IC50 (90 min), compounds incubated 90 minutes at room temperature before cinnamaldehyde agonist.

Like-named read-outs stand apart in the source and are kept apart here.

Chain of human TRPA1 channel (O75762 whole entry): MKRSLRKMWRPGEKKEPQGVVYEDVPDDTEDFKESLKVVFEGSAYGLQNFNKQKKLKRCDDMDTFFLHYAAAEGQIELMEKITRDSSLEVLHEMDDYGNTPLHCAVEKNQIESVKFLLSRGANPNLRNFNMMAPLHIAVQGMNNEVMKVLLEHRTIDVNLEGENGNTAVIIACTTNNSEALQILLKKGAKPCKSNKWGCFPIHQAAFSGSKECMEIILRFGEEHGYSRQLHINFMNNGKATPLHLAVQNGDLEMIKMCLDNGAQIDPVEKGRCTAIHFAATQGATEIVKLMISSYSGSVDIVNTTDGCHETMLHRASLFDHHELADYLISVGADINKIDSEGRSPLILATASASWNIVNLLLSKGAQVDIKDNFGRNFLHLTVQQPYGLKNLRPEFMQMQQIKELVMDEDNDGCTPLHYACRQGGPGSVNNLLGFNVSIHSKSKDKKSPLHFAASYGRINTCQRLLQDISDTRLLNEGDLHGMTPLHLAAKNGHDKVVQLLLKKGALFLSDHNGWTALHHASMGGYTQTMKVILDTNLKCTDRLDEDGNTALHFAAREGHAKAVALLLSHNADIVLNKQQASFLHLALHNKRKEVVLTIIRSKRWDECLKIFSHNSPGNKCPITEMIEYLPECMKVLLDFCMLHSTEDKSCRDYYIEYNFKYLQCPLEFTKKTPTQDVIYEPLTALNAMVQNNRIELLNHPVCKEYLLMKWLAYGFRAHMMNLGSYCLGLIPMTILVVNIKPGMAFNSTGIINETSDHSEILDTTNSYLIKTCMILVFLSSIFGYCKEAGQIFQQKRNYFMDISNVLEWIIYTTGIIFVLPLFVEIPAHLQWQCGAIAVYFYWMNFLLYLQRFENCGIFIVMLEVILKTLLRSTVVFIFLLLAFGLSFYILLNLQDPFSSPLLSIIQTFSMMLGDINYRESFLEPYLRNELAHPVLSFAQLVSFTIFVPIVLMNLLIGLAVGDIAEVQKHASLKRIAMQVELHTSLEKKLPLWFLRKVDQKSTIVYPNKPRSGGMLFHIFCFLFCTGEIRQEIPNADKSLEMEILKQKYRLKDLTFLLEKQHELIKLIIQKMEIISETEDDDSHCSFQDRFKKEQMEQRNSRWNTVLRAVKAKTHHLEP

Take `Cn1cnc2ncn(Cc3nc([C@H]4[C@@H]5CN(c6ccc(C(F)(F)F)cc6)C[C@@H]54)no3)c(=O)c21` [Example Compound 31, 7-methyl-1-[[3-[(1R,5S,6r)-3-[4-(trifluoromethyl)phenyl]-3-azabicyclo[3.1.0]hexan-6-yl]-1,2,4-oxadiazol-5-yl]methyl]purin-6-one]: the IC50 under setting [1] was determined as 97.1 nM.

On to `Cn1cnc2ncn(Cc3nc([C@H]4[C@@H]5CN(c6ccc(C=O)cc6)C[C@@H]54)no3)c(=O)c21` [Example Compound 32, 4-[(1R,5S,6r)-6-[5-[(7-methyl-6-oxo-purin-1-yl)methyl]-1,2,4-oxadiazol-3-yl]-3-azabicyclo[3.1.0]hexan-3-yl]benzaldehyde], for which the IC50 under setting [1] was 54.9 nM. Regarding `Cn1cnc2ncn(Cc3nc([C@H]4[C@@H]5CN(c6ccc7ccccc7c6)C[C@@H]54)no3)c(=O)c21` [Example Compound 33, 7-methyl-1-[[3-[(1R,5S,6r)-3-[2-naphthyl]-3-azabicyclo[3.1.0]hexan-6-yl]-1,2,4-oxadiazol-5-yl]methyl]purin-6-one], the IC50 under setting [1] was 7.31 nM. With `Cn1cnc2ncn(Cc3nc([C@H]4[C@@H]5CN(c6ccc(Cl)nc6)C[C@@H]54)no3)c(=O)c21` [Example Compound 34, 7-methyl-1-[[3-[(1R,5S,6r)-3-[6-chloro-3-pyridyl]-3-azabicyclo[3.1.0]hexan-6-yl]-1,2,4-oxadiazol-5-yl]methyl]purin-6-one], the IC50 under setting [1] was determined as 464 nM. With `COc1ccc(N2C[C@@H]3[C@H](C2)[C@H]3c2noc(Cn3cnc4ncn(C)c4c3=O)n2)cc1` [Example Compound 35, 7-methyl-1-[[3-[(1R,5S,6r)-3-[4-methoxyphenyl]-3-azabicyclo[3.1.0]hexan-6-yl]-1,2,4-oxadiazol-5-yl]methyl]purin-6-one], the half-maximal inhibitory concentration (IC50) under setting [1] turned out to be 48 nM. Regarding `Cc1cncc2ncn(Cc3nc([C@H]4[C@@H]5CN(c6ccc(Cl)cc6)C[C@@H]54)no3)c(=O)c12` [Example Compound 36, 5-methyl-3-[[3-[(1R,5S,6r)-3-(4-chlorophenyl)-3-azabicyclo[3.1.0]hexan-6-yl]-1,2,4-oxadiazol-5-yl]methyl]pyrido[3,4-d]pyrimidin-4-one], the IC50 under setting [1] is 71.4 nM. `Cc1cncc2ncn(Cc3nc([C@H]4C[C@](F)(c5ccc(Cl)cc5)C4)no3)c(=O)c12` [Example Compound 37, 3-((3-((1s,3s)-3-(4-chlorophenyl)-3-fluorocyclobutyl)-1,2,4-oxadiazol-5-yl)methyl)-5-methylpyrido[3,4-d]pyrimidin-4(3H)-one]: the IC50 under setting [1] amounted to 22.8 nM. `Cc1ccnc2ncn(Cc3nc([C@H]4C[C@](F)(c5ccc(Cl)cc5)C4)no3)c(=O)c12` [Example Compound 38, 3-((3-((1s,3s)-3-(4-chlorophenyl)-3-fluorocyclobutyl)-1,2,4-oxadiazol-5-yl)methyl)-5-methylpyrido[2,3-d]pyrimidin-4(3H)-one]: the IC50 under setting [1] worked out at 28.9 nM. As to `Cn1cnc2ncn(Cc3nc([C@H]4[C@@H]5CN(c6cc(F)cc(F)c6)C[C@@H]54)no3)c(=O)c21` [Example Compound 92, 1-((3-((1R,5S,6r)-3-(3,5-difluorophenyl)-3-azabicyclo[3.1.0]hexan-6-yl)-1,2,4-oxadiazol-5-yl)methyl)-7-methyl-1,7-dihydro-6H-purin-6-one], the IC50 runs as follows: under setting [1], 20.6 nM; under setting [2], 3.1 nM. For `Cn1cnc2ncn(Cc3nc([C@H]4[C@@H]5C=C(c6ccc(F)c(F)c6)C[C@@H]54)no3)c(=O)c21` [Example Compound 93, 1-((3-((1S,5S,6R)-3-(3,4-difluorophenyl)bicyclo[3.1.0]hex-2-en-6-yl)-1,2,4-oxadiazol-5-yl)methyl)-7-methyl-1,7-dihydro-6H-purin-6-one], the IC50 is, setting by setting: under setting [1], 12.7 nM; under setting [2], 3.9 nM. In the case of `Cn1cnc2ncn(Cc3nc([C@@H]4[C@H]5C=C(c6ccc(F)c(F)c6)C[C@H]54)no3)c(=O)c21` [Example Compound 94, 1-((3-((1R,5R,6S)-3-(3,4-difluorophenyl)bicyclo[3.1.0]hex-2-en-6-yl)-1,2,4-oxadiazol-5-yl)methyl)-7-methyl-1,7-dihydro-6H-purin-6-one], the IC50 under setting [1] worked out at 9.35 nM and the IC50 under setting [2] was 4.9 nM. With `Cc1cnn2ncn(Cc3nc([C@H]4[C@@H]5CN(c6ccccc6)C[C@@H]54)no3)c(=O)c12` [Example Compound 95, 5-methyl-3-((3-((1R,5S,6r)-3-phenyl-3-azabicyclo[3.1.0]hexan-6-yl)-1,2,4-oxadiazol-5-yl)methyl)pyrazolo[5,1f][1,2,4]triazin-4(3H)-one], the IC50 turned out to be 8.11 nM under setting [1] and 3.5 nM under setting [2].

Take `O=c1c2cccnc2cnn1Cc1nc([C@H]2[C@@H]3CN(c4cccc(F)c4)C[C@@H]32)no1` [Example Compound 96, 6-((3-((1R,5S,6r)-3-(3-fluorophenyl)-3-azabicyclo[3.1.0]hexan-6-yl)-1,2,4-oxadiazol-5-yl)methyl)pyrido[2,3-d]pyridazin-5(6H)-one]: the IC50 is, setting by setting: under setting [1], 8.39 nM; under setting [2], 5.1 nM. Regarding `Cn1cnc2ncn(Cc3nc([C@H]4[C@@H]5CN(c6ccccc6F)C[C@@H]54)no3)c(=O)c21` [Example Compound 97, 1-((3-((1R,5S,6r)-3-(2-fluorophenyl)-3-azabicyclo[3.1.0]hexan-6-yl)-1,2,4-oxadiazol-5-yl)methyl)-7-methyl-1,7-dihydro-6H-purin-6-one], the IC50 is, setting by setting: under setting [1], 48.1 nM; under setting [2], 19 nM. For the compound `Cn1cnc2ncn(Cc3nc([C@H]4[C@@H]5CN(c6ccccc6C#N)C[C@@H]54)no3)c(=O)c21` [Example Compound 98, 2-((1R,5S,6r)-6-(5-((7-methyl-6-oxo-6,7-dihydro-1H-purin-1-yl)methyl)-1,2,4-oxadiazol-3-yl)-3-azabicyclo[3.1.0]hexan-3-yl)benzonitrile], the IC50 came out at 157 nM under setting [1] and 100 nM under setting [2].

As to `Cn1cnc2ncn(Cc3nc([C@H]4[C@@H]5CN(c6cc(F)ccc6F)C[C@@H]54)no3)c(=O)c21` [Example Compound 99, 1-((3-((1R,5S,6r)-3-(2,5-difluorophenyl)-3-azabicyclo[3.1.0]hexan-6-yl)-1,2,4-oxadiazol-5-yl)methyl)-7-methyl-1,7-dihydro-6H-purin-6-one], the half-inhibitory concentration (IC50) was found to be 15.1 nM under setting [1] and 6.3 nM under setting [2]. Taken in the same sequence, the figures for `Cn1cnc2ncn(Cc3nc([C@H]4[C@@H]5CN(c6cccc(F)c6F)C[C@@H]54)no3)c(=O)c21` [Example Compound 100, 1-((3-((1R,5S,6r)-3-(2,3-difluorophenyl)-3-azabicyclo[3.1.0]hexan-6-yl)-1,2,4-oxadiazol-5-yl)methyl)-7-methyl-1,7-dihydro-6H-purin-6-one] were 12.8 nM and 2.5 nM. With `Cn1cnc2ncn(Cc3nc([C@H]4C[C@H](C(=O)c5cccc(Cl)c5)C4)no3)c(=O)c21` [Example Compound 101, 1-((3-((1r,3r)-3-(3-chlorobenzoyl)cyclobutyl)-1,2,4-oxadiazol-5-yl)methyl)-7-methyl-1,7-dihydro-6H-purin-6-one], the IC50 reads like this: under setting [1], 117 nM; under setting [2], 64 nM. Regarding `Cn1cnc2ncn(Cc3nc([C@@H]4[C@H]5C=C(c6cccc(C(F)F)c6)C[C@H]54)no3)c(=O)c21` [Example Compound 102, 1-((3-((1R,5R,6S)-3-(3-(difluoromethyl)phenyl)bicyclo[3.1.0]hex-2-en-6-yl)-1,2,4-oxadiazol-5-yl)methyl)-7-methyl-1,7-dihydro-6H-purin-6-one], the IC50 by setting is: under setting [1], 49.5 nM; under setting [2], 37 nM. With `Cn1cnc2ncn(Cc3nc([C@H]4[C@@H]5C=C(c6cccc(C(F)F)c6)C[C@@H]54)no3)c(=O)c21` [Example Compound 103, 1-((3-((1S,5S,6R)-3-(3-(difluoromethyl)phenyl)bicyclo[3.1.0]hex-2-en-6-yl)-1,2,4-oxadiazol-5-yl)methyl)-7-methyl-1,7-dihydro-6H-purin-6-one], the 50% inhibitory concentration (IC50) by setting is: under setting [1], 31.9 nM; under setting [2], 26 nM. On to `Cc1noc2ncn(Cc3nc([C@H]4[C@@H]5CN(c6cc(Cl)ccn6)C[C@@H]54)no3)c(=O)c12` [Example Compound 104, 5-((3-((1R,5S,6r)-3-(4-chloropyridin-2-yl)-3-azabicyclo[3.1.0]hexan-6-yl)-1,2,4-oxadiazol-5-yl)methyl)-3-methylisoxazolo[5,4-d]pyrimidin-4(5H)-one], for which the IC50 by setting is: under setting [1], 43 nM; under setting [2], 30 nM.

Turning to `Cn1cnc2ncn(Cc3nc([C@H]4[C@@H]5CN(c6ccc(F)c(F)c6)C[C@@H]54)no3)c(=O)c21` [Example Compound 105, 1-((3-((1R,5S,6r)-3-(3,4-difluorophenyl)-3-azabicyclo[3.1.0]hexan-6-yl)-1,2,4-oxadiazol-5-yl)methyl)-7-methyl-1,7-dihydro-6H-purin-6-one], the IC50 under setting [1] stood at 21.5 nM and the IC50 under setting [2] is 3.9 nM. With `Cn1nnc2ncn(Cc3nc([C@@H]4CC[C@@H](c5ccc(F)cc5)C4)no3)c(=O)c21` [Example Compound 106, 6-((3-((1R,3R)-3-(4-fluorophenyl)cyclopentyl)-1,2,4-oxadiazol-5-yl)methyl)-1-methyl-1,6-dihydro-7H-[1,2,3]triazolo[4,5-d]pyrimidin-7-one], the IC50 under setting [1] stood at 40.3 nM and the IC50 under setting [2] turned out to be 44 nM.
